The text below walks through data of patent US20230002352A1, “SULFONAMIDE DERIVATIVES AS CTPS1 INHIBITORS” (Step Pharma S.A.S., priority 2019, published 2023).

Where only a bound is given, the exact number is not on record here.

One assay has as its target T1, human CTPS1 (Homo sapiens, UniProt P17812).
T1 construct: purchased Proteros biostructures GmbH
T1 sequence (P17812 1-591): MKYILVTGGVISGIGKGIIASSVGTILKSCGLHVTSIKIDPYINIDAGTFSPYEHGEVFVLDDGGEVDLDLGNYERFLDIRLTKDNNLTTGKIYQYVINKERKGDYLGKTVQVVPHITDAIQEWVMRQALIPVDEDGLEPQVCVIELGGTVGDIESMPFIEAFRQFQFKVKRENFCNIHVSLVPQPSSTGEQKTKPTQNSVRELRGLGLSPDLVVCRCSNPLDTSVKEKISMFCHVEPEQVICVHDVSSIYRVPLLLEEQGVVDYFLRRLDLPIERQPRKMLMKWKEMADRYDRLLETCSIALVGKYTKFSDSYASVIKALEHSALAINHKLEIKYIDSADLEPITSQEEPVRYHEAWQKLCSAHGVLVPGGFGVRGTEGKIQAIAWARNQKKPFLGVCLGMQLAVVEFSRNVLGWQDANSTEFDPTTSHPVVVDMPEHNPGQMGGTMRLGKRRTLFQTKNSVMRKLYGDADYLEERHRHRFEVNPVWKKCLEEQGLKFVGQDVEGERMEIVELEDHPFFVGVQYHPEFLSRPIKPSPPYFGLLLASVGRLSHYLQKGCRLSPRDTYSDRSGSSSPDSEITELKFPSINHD
In words: Human CTPS1 enzyme inhibition (ADP-Glo Max assay). Format: biochemical. Particulars: Table 23; ADP-Glo Max assay; read-out: CTPS1 (Human CTPS1 Enzyme Inhibition data grouped by potency range, IC50). As to the method: Biological Example 1—Human CTPS1 Enzyme Inhibition
The enzyme inhibitory activities of compounds invented against the target of interest were determined using the ADP-Glo™ Max assay (Promega, UK). Assays for human CTPS1 were performed in 1× assay buffer containing 50 mM Tris, 10 mM MgCl2, 0.01% Tween-20, pH to 8.0 accordingly. Finally, immediately before use, L-cysteine was added to the 1× assay buffer to a final concentration of 2 mM. All reagents are from Sigma-Aldrich unless specified otherwise. Human full length active C-terminal FLAG-Hiss-tag CTPS1 (UniProtKB-P17812, CTPS[1-591]-[…]) was obtained from Proteros biostructures GmbH.
3× human CTPS1 protein was prepared in 1× assay buffer to the final working protein concentration required for the reaction. A 2 uL volume per well of 3× human CTPS1 protein was mixed with 2 uL per well of 3× test compound (compound prepared in 1× assay buffer to an appropriate final 3× compound concentration respective to the concentration response curve designed for the compounds under test) for 10 minutes at 25° C. The enzymatic reaction was then initiated by addition of a 2 uL per well volume of a pre-mixed substrate mix (UltraPure ATP from ADP-Glo™ Max kit (0.31 mM), GTP (0.034 mM), UTP (0.48 mM) and L-glutamine (0.186 mM)) and the mixture was incubated for an appropriate amount of time within the determined linear phase of the reaction at 25° C. under sealed plate conditions with constant agitation at 500 revolutions per minute (rpm). ADP-Glo™ Max reagent was added for 60 minutes (6 μL per well) and subsequently ADP-Glo™ Max development reagent was added for 60 minutes (12 uL per well) prior to signal detection in a microplate reader (EnVision® Multilabel Reader, Perkin Elmer). Following each reagent addition over the course of the assay, assay plates were pulse centrifuged for 30 seconds at 500 rpm.
In all cases, the enzyme converts ATP to ADP and the ADP-Glo™ Max reagent subsequently depletes any remaining endogenous ATP in the reaction system. The ADP-Glo™ Max detection reagent converts the ADP that has been enzymatically produced back into ATP and using ATP as a substrate together with luciferin for the enzyme luciferase, light is generated which produces a detectable luminescence. […] The percentage inhibition produced by each concentration of compound was calculated using the equation shown below: […]
Percentage inhibition was then plotted against compound concentration, and the 50% inhibitory concentration (IC50) was determined from the resultant concentration-response curve.
`Cc1cc(-c2cncc(C(F)(F)F)n2)ccc1NC(=O)C(C)(C)c1ccnc(NS(C)(=O)=O)n1` [Example P79]: the IC50 (as a rule, the concentration at which inhibition is half-maximal) is 100 to 1000 nM.
For the compound `CCC(C(=O)Nc1ccc(-c2cncc(Cl)c2)cn1)c1ccnc(NS(=O)(=O)C2CC2)n1` (stereo not drawn) [Example P148], the half-inhibitory concentration (IC50) is at most 100 nM.
Regarding `CCOc1cncc(-c2ccc(NC(=O)C(C)(C)c3ccnc(NS(=O)(=O)C4CC4)n3)nc2)c1` [Example P28], the IC50 is 100 to 1000 nM.
The same measure, in the same setting: in the case of `Cc1cncc(-c2ccc(NC(=O)C(C)(C)c3ccnc(NS(C)(=O)=O)n3)c(C)c2)n1` [Example P5, 2-Methyl-N-(2-methyl-4-(6-methylpyrazin-2-yl)phenyl)-2-(2-(methylsulfonamido)pyrimidin-4-yl)propanamide] it was 1000 to 10000 nM; in that of `CC(C)(C(=O)Nc1ccc(-c2cncc(Cl)n2)cc1)c1cccc(NS(=O)(=O)C2CC2)n1` [Example P182], 100 to 1000 nM; in that of `CCOc1cncc(-c2ccc(NC(=O)C(C)(C)c3cccc(NS(=O)(=O)C4CC4)n3)cc2)c1` [Example P178], 1000 to 10000 nM.
On the same count and under the same terms, next, `CCOc1cncc(-c2ccc(NC(=O)C3(c4ccnc(NS(=O)(=O)C5CC5)n4)CCN(C(=O)OC(C)(C)C)CC3)nc2)n1` [Example P139]: 100 to 1000 nM; `CC(C)(C(=O)Nc1ccc(-c2cccc(Cl)c2)cc1)c1ccnc(NS(=O)(=O)C2CC2)n1` [Example P61]: 1000 to 10000 nM.
On the same count and under the same terms, next, `CC(C)Oc1cncc(-c2ccc(NC(=O)C(C)(C)c3ccnc(NS(=O)(=O)C4CCC4)n3)c(F)c2)n1` [Example P23]: 100 to 1000 nM; `O=C(Cc1ccnc(NS(=O)(=O)C2CC2)n1)Nc1ccc(-c2ccccc2)cc1` [Example P17]: 1000 to 10000 nM.
Regarding `CCOc1cncc(-c2cnc(NC(=O)C(C)(C)c3ccnc(NS(=O)(=O)C4CC4)n3)c(F)c2)n1` [Example P27], the IC50 was at most 100 nM.
Turning to `COc1cncc(-c2ccc(NC(=O)Cc3ccnc(NS(=O)(=O)C4CC4)n3)cc2)n1` [Example P19], the IC50 was at most 100 nM.
The same measure, in the same setting: next, `CCOc1cncc(-c2cc(OC)c(NC(=O)C(C)(C)c3ccnc(NS(=O)(=O)C4CC4)n3)cc2F)n1` [Example P48]: 100 to 1000 nM; `O=C(Cc1ccnc(NS(=O)(=O)C2CC2)n1)Nc1ccc(-c2cncc(OCC(F)(F)F)c2)cc1` [Example P14]: 100 to 1000 nM; `CC(C)(C(=O)Nc1ccc(-c2cnccn2)cc1)c1cccc(NS(=O)(=O)C2CC2)n1` [Example P185]: 1000 to 10000 nM.
On the same count and under the same terms, next, `CCOc1cncc(-c2ccc(NC(=O)C(C)(C)c3ccnc(NS(=O)(=O)C4CC4)n3)cc2)c1` [Example P57]: 100 to 1000 nM; `O=C(Cc1cccc(NS(=O)(=O)C2CC2)n1)Nc1ccc(-c2cnccn2)cc1` [Example P174]: 1000 to 10000 nM.
For `CCOc1cncc(-c2cc(C)c(NC(=O)C(C)(C)c3ccnc(NS(=O)(=O)C4CC4)n3)cc2C)n1` [Example P46], the half-maximal inhibitory concentration (IC50) is 100 to 1000 nM.
Still for that read-out and setting: next, `CCOc1cncc(-c2cc(C)c(NC(=O)C(C)(C)c3ccnc(NS(=O)(=O)C4CC4)n3)cc2F)n1` [Example P45]: 100 to 1000 nM; `CCOc1cncc(-c2ccc(NC(=O)C(C)(C)c3ccnc(NS(=O)(=O)C4CC4)n3)c(OC)c2)n1` [Example P49]: at most 100 nM.
As to `C=C(C)c1cncc(-c2ccc(NC(=O)C(C)(C)c3ccnc(NS(=O)(=O)C4CC4)n3)cc2)n1` [Example P131], the IC50 was 100 to 1000 nM.
Still for that read-out and setting: next, `CC(C)(C(=O)Nc1ccc(-c2cncc(C(F)(F)F)n2)cc1F)c1ccnc(NS(=O)(=O)C2CC2)n1` [Example P37]: at most 100 nM; `CCC(C(=O)Nc1ccc(-c2cncc(C3CC3)n2)cn1)c1ccnc(NS(=O)(=O)C2CC2)n1` (stereo not drawn) [Example P156]: at most 100 nM; `CCOc1cncc(-c2ccc(NC(=O)C(F)(F)c3ccnc(NS(=O)(=O)C4CC4)n3)c(F)c2)n1` [Example P117]: at most 100 nM.
The same measure, in the same setting: next, `CCOc1cccc(-c2ccc(NC(=O)C(C)(C)c3ccnc(NS(=O)(=O)C4CC4)n3)cc2)c1` [Example P63]: 10000 to 20000 nM; `CCOc1cncc(-c2ccc(NC(=O)C(C)(C)c3ccnc(NS(=O)(=O)C4(C)CC4)n3)cc2)n1` [Example P69]: 100 to 1000 nM; `CC(C)(C(=O)Nc1ccc(-c2cncc(OC(F)F)c2)cc1)c1ccnc(NS(=O)(=O)C2CC2)n1` [Example P55]: at most 100 nM.
With `CCOc1cncc(-c2ccc(NC(=O)C(C)(C)c3ccnc(NS(=O)(=O)C4CC4)n3)c(Cl)c2)n1` [Example P33], the IC50 was at most 100 nM.
Still for that read-out and setting: next, `C=C(C)c1cncc(-c2ccc(NC(=O)C(C)(C)c3ccnc(NS(=O)(=O)C4CC4)n3)nc2)n1` [Example P122, 2-(2-(cyclopropanesulfonamido)pyrimidin-4-yl)-2-methyl-N-(5-(6-(prop-1-en-2-yl)pyrazin-2-yl)pyridin-2-yl)propanamide]: 100 to 1000 nM; `CCOc1cncc(-c2ccc(NC(=O)C(C)(C)c3ccnc(NS(=O)(=O)C4CCC4)n3)cc2)n1` [Example P26]: 100 to 1000 nM; `CCOc1cncc(-c2ccc(NC(=O)C(c3ccnc(NS(=O)(=O)C4CC4)n3)C(C)C)c(F)c2)n1` (stereo not drawn) [Example P153]: at most 100 nM.
On to `O=C(Cc1cncc(NS(=O)(=O)C2CC2)n1)Nc1ccc(-c2cccnc2)cc1` [Example P192], for which the IC50 is 1000 to 10000 nM.
On the same count and under the same terms, next, `CCOc1cncc(-c2ccc(NC(=O)C(C)(C)c3ccnc(NS(=O)(=O)C4CC4)n3)cn2)n1` [Example P126]: at most 100 nM.
As to `CC(C)(C(=O)Nc1ccc(-c2cccc(C(F)(F)F)c2)cc1)c1ccnc(NS(=O)(=O)C2CC2)n1` [Example P60], the IC50 fell in the range of 1000 to 10000 nM.
As to `CC(C)(C(=O)Nc1ccc(-c2cccc(C#N)c2)cc1)c1ccnc(NS(=O)(=O)C2CC2)n1` [Example P62], the IC50 lay within 1000 to 10000 nM.
The same measure, in the same setting: in the case of `CCOc1cncc(-c2ccc(C(=O)NC(CC)c3cncc(NS(=O)(=O)C4CC4)n3)c(F)c2)n1` (single isomer, unassigned) [Example P225] it was at most 100 nM; in that of `CCOc1cncc(-c2ccc(NC(=O)C3(c4ccnc(NS(C)(=O)=O)n4)CCN(C(=O)OC(C)(C)C)CC3)nc2)n1` [Example P142], 100 to 1000 nM; in that of `CC(C)(C(=O)Nc1ccc(-c2cncc(OC3CC3)n2)cn1)c1ccnc(NS(=O)(=O)C2CC2)n1` [Example P32], at most 100 nM.
Still for that read-out and setting: next, `CCOc1cncc(-c2ccc(NC(=O)C(C)(C)c3ccnc(NS(=O)(=O)C(C)(C)C)n3)cc2)n1` [Example P82]: 1000 to 10000 nM; `CCOc1cncc(-c2ccc(NC(=O)C(F)(c3ccnc(NS(=O)(=O)C4CC4)n3)C(C)C)nc2)n1` (stereo not drawn) [Example P152]: at most 100 nM.
Still for that read-out and setting: next, `CCOc1cncc(-c2ccc(NC(=O)C(CC)(CC)c3ccnc(NS(=O)(=O)C4CC4)n3)cc2)n1` [Example P10]: at most 100 nM; `CCC(C(=O)Nc1ccc(-c2cncc(C3CC3)n2)cc1F)c1ccnc(NS(=O)(=O)C2CC2)n1` (stereo not drawn) [Example P160]: at most 100 nM; `CC(C)(C(=O)Nc1ccc(-c2cncc(C(F)(F)F)n2)cc1)c1ccnc(NS(=O)(=O)C2CC2)n1` [Example P64]: at most 100 nM.
For the compound `CCOc1cncc(-c2ccc(NC(=O)C(c3ccnc(NS(=O)(=O)C4CC4)n3)C(C)C)nc2)n1` (stereo not drawn) [Example P154], the concentration for half-maximal inhibition (IC50) was at most 100 nM.

The same assay, now with this note: Table 24; ADP-Glo Max assay; read-out: CTPS1 (Human CTPS1 Enzyme Inhibition data grouped by potency range, IC50).
Regarding `CCOc1cncc(-c2ccc(CNC(CC)c3ccnc(NS(=O)(=O)C4CC4)n3)c(F)c2)n1` (stereo not drawn) [Example P235, N-(4-(1-((4-(6-Ethoxypyrazin-2-yl)-2-fluorobenzyl)amino)propyl)pyrimidin-2-yl)cyclopropanesulfonamide], the IC50 lay in the range of 100 to 1000 nM.
